Experimental data as given in article PMC13192270, “RhlR quorum-sensing receptor ligand sensitivity regulates the differential expression of phenazine genes in Pseudomonas aeruginosa” (Journal of Bacteriology, 2026).
Numbering of substitutions follows the chain as printed. Where two headings read alike, the source gives them in different places.

Assays:
LasR = test system: LasR; parameters: method as in PMID 28119451; conditions: cited from earlier work
RhlR (T58V) = biological target: T1, RhlR (T58V) (Pseudomonas aeruginosa, UniProt P54292, T58V); experiment: E. coli prhlA-luxCDABE luciferase reporter assay; format: cell-based
T1 construct: expressed in transfected cells; host or cells: E. coli carrying pBAD-A-rhlR mutant, pCS26-prhlA-luxCDABE and pACYC-pqsE or empty pACYC
T1 sequence (P54292 1-241 T58V): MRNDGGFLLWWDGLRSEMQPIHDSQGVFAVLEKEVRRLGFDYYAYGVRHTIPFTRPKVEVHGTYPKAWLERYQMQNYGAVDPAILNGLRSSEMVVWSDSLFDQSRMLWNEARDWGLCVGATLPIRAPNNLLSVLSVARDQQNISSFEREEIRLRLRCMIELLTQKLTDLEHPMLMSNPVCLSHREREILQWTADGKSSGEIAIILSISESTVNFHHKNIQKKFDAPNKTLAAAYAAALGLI
Excerpt: (§1) Previous analysis of the RhlR LBP focused on highly conserved residues that were known from other AHL-binding proteins to be important contacts for AHL molecules, particularly the lactone head group. We performed conservation analyses on 300 LuxR-type receptors to determine variable and moderately conserved residues in the LBP (Fig. 1B) and, in conjunction with our previously determined experimental structure of WT RhlR bound to the synthetic agonist mBTL, used for docking C4- and C6HSL. Based on our docking simulations, C4- and C6HSL occupy a similar position in the LBP as mBTL, a highly efficacious activator of RhlR (Fig. 1C; Fig. S1). We targeted residues A44, G46, T58, L69, Y72, D81, I84, W96, and W108 (Fig. 1B and C). These residues were selected because of their proximity to the acyl tail of C4HSL, as well as the differences in conservation that are observed at these sites. We used an E. coli luciferase reporter assay to monitor ligand-dependent activation of WT RhlR and RhlR variants. WT RhlR and RhlR variants were expressed under the control of an arabinose-inducible promoter (Fig. S2). Transcription was monitored by light production via the expression of the luxCDABE operon controlled by the RhlR-dependent promoter of rhlA. Binding of RhlR to the rhlA promoter is highly dependent on the C4HSL-RhlR interaction, based on ChIP-seq analyses performed in P. aeruginosa as well as previously published E. coli reporter systems ([34], [39]). After expressing WT RhlR and RhlR variants in the E. coli reporter system, we performed dose response assays using C4HSL to calculate the concentration of C4HSL required to activate the reporter system to 50% maximum levels (EC50 value; Table 1). As expected, transcription activation by WT RhlR increased with increased C4HSL levels, with an EC50 value of ~2 µM. We observed a range of responses. Figure 1C depicts the targeted residues, which are colored based on the effect of amino acid substitution.
(§2) RhlR requires the accessory-binding protein, PqsE, for maximal activity. To determine if PqsE expression altered the activation of RhlR variants, we assessed AHL-dependent RhlR activation of the prhlA-luxCDABE reporter in the presence of a third plasmid that constitutively expresses PqsE in E. coli. […] RhlR variants that were still active but with increased EC50 values for C4HSL could have their activity enhanced by PqsE. […] Thus, alterations to the LBP can diminish the additive effect of PqsE-dependent transcription, indicating a potential role of allosteric conformational changes dependent on ligand occupancy. […] RhlR variants at residues I84 and W108 could not be activated by C4HSL, and thus, light levels remained low at all concentrations that were tested. Unlike the aforementioned variants, RhlR I84M/W and RhlR W108F/Y were activated by the expression of PqsE (Fig. S4).
(§3) All E. coli strains in this study were grown overnight with shaking in 5 mL Luria-Bertani (LB) media supplemented with 100 µg/mL ampicillin, 50 µg/mL kanamycin, and 15 µg/mL tetracycline at 37°C overnight. Overnight cultures were diluted 1:100 into fresh media, grown at 37°C with shaking for 2 h until reaching OD600 = 0.4. Cultures were induced with a final concentration of 0.1% arabinose, and 198 μL of the induced culture was mixed with 2 μL of C4HSL dilutions in a clear-bottom, black-opaque 96-well plate (Corning) and grown at 37°C with shaking for 4 h. The C4HSL dilution series was performed 1:1 in dimethyl sulfoxide (DMSO) with a top final concentration of 10 μM. Luminescence and optical density were recorded using a Glomax (Promega) plate reader.

WT RhlR = biological target: T2, WT RhlR (Pseudomonas aeruginosa, UniProt P54292); experiment: E. coli prhlA-luxCDABE luciferase reporter assay; format: cell-based; conditions: read-out: EC50
T2 construct: expressed in transfected cells; host or cells: E. coli carrying pBAD-A-rhlR, pCS26-prhlA-luxCDABE and pACYC-pqsE or empty pACYC
T2 sequence (P54292 1-241): T1 sequence (P54292 1-241 T58V) with V58T
Excerpt: as §1, §2, §3

RhlR (T58F) = biological target: T3, RhlR (T58F) (Pseudomonas aeruginosa, UniProt P54292, T58F); experiment: E. coli prhlA-luxCDABE luciferase reporter assay; format: cell-based, Escherichia coli
T3 construct: expressed in transfected cells; host or cells: E. coli carrying pBAD-A-rhlR mutant, pCS26-prhlA-luxCDABE and pACYC-pqsE or empty pACYC
T3 sequence (P54292 1-241 T58F): T1 sequence (P54292 1-241 T58V) with V58F
Excerpt: as §1, §2, §3

RhlR (T58I) = biological target: T4, RhlR (T58I) (Pseudomonas aeruginosa, UniProt P54292, T58I); experiment: E. coli prhlA-luxCDABE luciferase reporter assay; format: cell-based, Escherichia coli
T4 construct: expressed in transfected cells; host or cells: E. coli carrying pBAD-A-rhlR mutant, pCS26-prhlA-luxCDABE and pACYC-pqsE or empty pACYC
T4 sequence (P54292 1-241 T58I): T1 sequence (P54292 1-241 T58V) with V58I
Excerpt: as §1, §2, §3

RhlR (T58L) = biological target: T5, RhlR (T58L) (Pseudomonas aeruginosa, UniProt P54292, T58L); experiment: E. coli prhlA-luxCDABE luciferase reporter assay; format: cell-based, Escherichia coli
T5 construct: expressed in transfected cells; host or cells: E. coli carrying pBAD-A-rhlR mutant, pCS26-prhlA-luxCDABE and pACYC-pqsE or empty pACYC
T5 sequence (P54292 1-241 T58L): T1 sequence (P54292 1-241 T58V) with V58L
Excerpt: as §1, §2, §3

6x-His-PqsE = 6x-His-PqsE (Pseudomonas aeruginosa, UniProt P20581 1-301); experiment: cell-based or functional assay

In the case of `CCCCCCCCCC(=O)CC(=O)N[C@H]1CCOC1=O` [3OC12HSL, N-(3-oxododecanoyl)-L-homoserine lactone], the EC50 (LasR) is given as ~2 nM.

Work on `CCCCCC(=O)N[C@H]1CCOC1=O` [C6HSL] yielded an EC50 (RhlR (T58V); Vector (no pqsE)) of 809 nM, an EC50 (RhlR (T58V); pqsE co-expressed) of 111 nM and an EC50 (WT RhlR; Vector (no pqsE)) of 12600 nM. For the same molecule, the EC50 (WT RhlR; pqsE co-expressed) was 9240 nM, the EC50 (RhlR (T58F); Vector (no pqsE)) was 580 nM and the EC50 (RhlR (T58F); pqsE co-expressed) was 103 nM. It also gave an EC50 (RhlR (T58I); Vector (no pqsE)) of 561 nM, an EC50 (RhlR (T58I); pqsE co-expressed) of 51.1 nM and an EC50 (RhlR (T58L); Vector (no pqsE)) of 168 nM. For the same molecule, the EC50 (RhlR (T58L); pqsE co-expressed) was 0.908 nM.

B1: WT RhlR (receptor)
chain: T1 sequence (P54292 1-241 T58V) with V58T
With B1 the “prhlA-luxCDABE reporter in E. coli: C4HSL-RhlR-dependent expression with PqsE expressed from a third plasmid (pACYC) against the empty vector” value (6x-His-PqsE) was ~20 fold.
